US8497075B2, “Methods of identifying a modulator that inhibits the binding between Epstein-Barr virus induced receptor 2 and cholesterol derived ligands” (Novartis AG, priority 2008, dated 2013)
pEC50, pIC50, pKd: −log10 of the molar value. One block for each compound: values may come before it.

How the values were obtained:
hEBI2 [1] = biological target: T1, hEBI2 (Homo sapiens, UniProt P32249); assay: saturation binding, KD determination; design: expressed in transfected cells; host or cells: CHO-K1 expressing apoaequorin (CHO-Aeq) with Gqi5; line E2
T1 sequence (P32249 whole entry): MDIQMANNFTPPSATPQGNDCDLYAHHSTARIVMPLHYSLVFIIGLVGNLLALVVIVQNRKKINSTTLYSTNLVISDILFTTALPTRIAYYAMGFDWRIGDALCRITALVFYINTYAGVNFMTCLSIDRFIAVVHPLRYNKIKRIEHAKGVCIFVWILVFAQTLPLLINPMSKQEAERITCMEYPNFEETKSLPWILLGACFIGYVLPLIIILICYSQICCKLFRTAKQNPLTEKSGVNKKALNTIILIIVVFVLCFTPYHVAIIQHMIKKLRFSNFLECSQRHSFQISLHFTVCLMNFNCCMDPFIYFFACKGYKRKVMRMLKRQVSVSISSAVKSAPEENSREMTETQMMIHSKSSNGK
Experimental: CHO cells stably expressing human EBI2 (E2) were grown in roller bottles (Corning #431191) to confluency, washed with phosphate buffered saline (PBS) once and frozen at −80° C. The frozen cell pellets were resuspended in ice-cold homogenization buffer (10 ml/gram, 20 mM Tris pH7.2) supplemented with a protease inhibitor cocktail (Complete™, Roche, #05 056 489 001-14302200). The cell suspension was then homogenized using a Dounce homogenizer (10 strokes) with a driller. After centrifugation at 110000×g for 45 minutes and removal of the supernatant, pellets were resuspended in sucrose buffer (50 mM Tris pH7.2, 250 mM sucrose, 10% glycerol) by vortexing. The suspension was again homogenize using a Dounce homogenizer (10 strokes) and spun at 100000×g for 45 minutes. The supernatant was discarded, the pellet resuspended in sucrose buffer, protein concentration determined, aliquoted and frozen at −80° C. These membrane preparations were used in binding as well as GTPgS assays.
These solutions were made in buffer containing 50 mM Tris; 100 mM NaCl; 5 mM MgCl2 and 0.1% Cyclodextrine.
[…] was measured in presence of a constant 7a,25DHC (NVP-BYX998-NX-4) concentration of 10 uM final and the corresponding total binding was measured with buffer instead of NVP-BYX998-NX-4. […]

hEBI2 [2] = biological target: T1, hEBI2; assay: GTPγS assay on EBI2 membranes; format: biochemical; design: expressed in transfected cells; host or cells: CHO-K1 expressing apoaequorin (CHO-Aeq) with Gqi5; line E2
Experimental: (§1) The cell suspension was then homogenized using a Dounce homogenizer (10 strokes) with a driller. After centrifugation at 110000×g for 45 minutes and removal of the supernatant, pellets were resuspended in sucrose buffer (50 mM Tris pH7.2, 250 mM sucrose, 10% glycerol) by vortexing. The suspension was again homogenize using a Dounce homogenizer (10 strokes) and spun at 100000×g for 45 minutes. The supernatant was discarded, the pellet resuspended in sucrose buffer, protein concentration determined, aliquoted and frozen at −80° C. These membrane preparations were used in binding as well as GTPgS assays.
Ten micrograms of EBI2 membranes are dissolved in 40 μl of buffer A (20 mM Hepes pH 7.4, 100 mM NaCl, 1.5 mM MgCl2, Saponin 10 μg/ml) supplemented with 10 μM GDP. After addition of […] scintilation proximity assay (SPA) beads (100 μg/well, Amersham, RPNQ0001) components are gently mixed and incubated at RT for 15 minutes. Twenty microliters of compound diluted in buffer A and 20 μl of GTPγ^35S (Perkin Elmer NEG030X) is added before incubation for one hour at RT. Plates are transferred and counted in a TopCount (Perkin Elmer NXT HTS™) and counts are analysed plotted and to determine half maximal concentrations of activation using standard software (Prism™, GraphPad Software Inc.).

hEBI2 [3] = biological target: T1, hEBI2; assay: [3H] 7a,25DHC radio-ligand binding assay (SPA), IC50 determination; design: expressed in transfected cells; host or cells: CHO-K1 expressing apoaequorin (CHO-Aeq) with Gqi5; line E2
Experimental: as §1
Lyophilized wheat germ agglutinin scintilation proximity assay (SPA) beads (RPNQ0001) were purchased from GE Healthcare (Buckinghamshire, UK). One vial (500 mg) is reconstituted by adding 5 mL of distilled water to give a final concentration of 100 mg/mL. Reconstituted SPA beads must be stored at 4° C., but must not be frozen. [3H]-7a,25-OHC, was synthesized by reduction of the 7-keto, 25DHC in the presence of 3H-L-selectride.
The SPA assay was performed in a final volume of 50 μl per well in a 384-well polystyrene Opti plate. The components were added into the wells as follows: • 10 μl tested compounds in 50 mM Tris; 100 mM NaCl; 5 mM MgCl2 and 0.1% Cyclodextrine.
Total binding was determined by the addition of 10 μl of 50 mM Tris; 100 mM NaCl; 5 mM MgCl2 and 0.1% Cyclodextrine and non-specific binding was determined by the addition of 10 μl NVP-BYX998-NX-4 (final concentration of 10 μM). • 20 μL of 10 nM final [3H]-BYX998 in assay buffer (50 mM Tris-HCl, 100 mM NaCl, 5 mM MgCl2 and 0.1% Cyclodextrine). • 20 μL of a mixed bead and membrane suspension in assay buffer, in order to get a final concentration of 20 μg membranes/well and 200 μg beads/well.
The plates were sealed and shaken at room temperature for 10 minutes then allowed to stand at room temperature for at least 12 hours. The plates were counted using a Perkin Elmer TopCount reader, each well being counted for 1 minute.
Each IC50 determination was performed with 11 concentrations.
A standard data reduction algorithm was used to calculate the percentage of specific binding in the presence of test compound as follows: ((B−NSB)/(Total−NSB))·100, where B=Binding in the presence of test compound (in cpm) NSB=Non-specific binding in the presence of excess inhibitor (in cpm) Total=Binding in the absence of test compound (in cpm) Curve fitting of the normalized concentration response curves using a four parameter logistic fit is then performed using XLfit (v.2 or v.4, IDBS, Guildford, UK). The equation used is XLfit equation no. […] By default, min is fixed at 0, whereas max is not fixed.

hEBI2 [4] = biological target: T1, hEBI2; assay: calcium fluorescence (FLIPR); format: cell-based; design: expressed in transfected cells; host or cells: CHO-K1 expressing apoaequorin (CHO-Aeq) with Gqi5; line E2
Experimental: If not stated otherwise compounds were dissolved at 10 mM in DMSO or ethanol (cholesterol, 25MDC). Serial dilutions were carried out in 90% DMSO (FLIPR, GTPgS) or assay buffer (binding assay). For cell based assays final DMSO concentrations is kept below 1%.
If not stated otherwise, the same Chinese hamster ovary (CHO) cell line called E2 which was used for the ligand identification was used in these experiments. This cell line is expressing (1) the recombinant human EBI2 receptor, (2) the promiscuous Gqi5 protein as well as (3) apo-aequorin.
Cells were seeded in black/clear bottom, poly-D-Lysine coated 384-well plates at a cell density of 10,000 cells/25 μL/well, using culture medium. Cells were cultured for 24 hours at 37° C./5% CO2. Culture medium was removed and for cell loading, 20 μl per well of loading buffer (Calcium-4 no wash dye) were distributed into the wells and the plates were incubated for 60 min at 37° C. in 5% CO2. With the FLIPR pipettor, 10 μl of the different compounds were added to the cells and the subsequent fluorescent changes monitored for 3 minutes. Using the FLIPR software tool, 2 values of fluorescence calcium responses were exported: Fmax, the fluorescence at the peak and Fbasal corresponding to the value prior to compound injection. From these two values, the calcium response is normalized with respect to the calcium baseline values using dF/F=(Fmax−Fbasal)/Fbasal. The maximum dF/F is called Emax.

RS11846 cells = assay: chemotaxis 96 transwell assay; format: cell-based
Experimental: B cells (RS11846 or EBV-infected human B-cells) or murine bone marrow-derived dendritic cells were washed once with medium and resuspended at 1×10^6/ml. 100 μl of this suspension was added into the wells of the filter plate and gently placed into the receiver plate containing 150 μl of a given compound dilution. The final DMSO concentration was less then 0.1%. After migration for 3 hr at 37° C. in an incubator, the filter plate was carefully removed from the receiver plate and discarded. The migrated cells in the receiver plate were resuspended and transferred into round-bottom 96-well plate, centrifuged and resuspended in 100 μl PBS containing 2% FCS and 0.1% NaN3 (FACS buffer). The input cells (100 μl) were similarly processed. For the calculation of the specific migration, a fixed number of beads (10000; Invitrogen #PCB100)) in 20 μl FACS buffer was added and the suspension was analyzed by flow cytometry using a FACS instrument PAS™ (Partec). Cells were identified based on their forward scatter (FSC) and side scatter (SSC) pattern. Chemotaxis is expressed either as total cell number or as percent of input cells.

Compound: C[C@H](CCCC(C)(C)O)[C@H]1CC[C@H]2[C@@H]3[C@H](O)C=C4C[C@@H](O)CC[C@]4(C)[C@H]3CC[C@]12C [[^3H]-7a,25DHC]
- pKd (hEBI2 [1]): 7.60

- pEC50 (hEBI2 [2]; n = 3-4, read-out: GTPgS EC50): 6.90
- pIC50 (hEBI2 [3]): < 5.00
- pEC50 (hEBI2 [4]; n = 3-4, read-out: FLIPR EC50): 6.51
Compound: CC(CO)CCC[C@@H](C)[C@H]1CC[C@H]2[C@@H]3[C@@H](O)C=C4C[C@@H](O)CC[C@]4(C)[C@H]3CC[C@]12C (stereo partly drawn) [7b,27DHC, cholest-5-ene-3b,7b,27-triol]

Compound: C[C@H](CCCC(C)(C)O)[C@H]1CC[C@H]2[C@@H]3[C@@H](O)C=C4C[C@@H](O)CC[C@]4(C)[C@H]3CC[C@]12C [[^3H]-7b,25DHC]
- specific binding to EBI2 membranes (hEBI2 [1]; data not shown): not able to detect specific binding

- pEC50 (hEBI2 [2]): 6.14
- pIC50 (hEBI2 [3]): < 5.00
- pEC50 (hEBI2 [4]): 5.52
Compound: C[C@H](CCCC(C)(C)O)[C@H]1CC[C@H]2[C@@H]3CC=C4C[C@@H](O)CC[C@]4(C)[C@H]3CC[C@]12C [25DHC, 25-hydroxycholesterol]

Compound: pertussis toxin [reference compound]
- inhibition of 7a,25DHC-mediated chemotaxis of RS11846 cells (RS11846 cells): blocked
